Assay results from patent US20190358138A1, “A PERSONAL CARE COMPOSITION” (Conopco, Inc., d/b/a UNILEVER, priority 2017, published 2019).

Tests used:
[1] = test system: store-operated Ca^2+ entry (SOCE); assay: Store-operated Ca2+ entry (SOCE) in isolated human eccrine sweat glands, thapsigargin-induced, Fura-2 340:380 ratio; assay type: cell-based; conditions: for IC50: half-maximal concentration from dose-response curve, isolated eccrine glands, 1 μM thapsigargin; for inhibition at 10 µM: reduction in 340:380 ratio at maximal inhibitor concentration 10^−5M, as % of control response, read-out: Potency (% inhibition at 10^−5M)
Experimental: Isolation of Human Eccrine Sweat Glands
Viable human eccrine sweat glands were isolated from samples of human skin (obtained under ethical consent).
Measurement of Intracellular Ca^2+ Concentration
Intracellular [Ca^2+]i was measured in isolated eccrine glands by plating them onto Matrigel coated glass coverslips and loading them with the calcium-sensitive, fluorescent dye Fura-2 by incubation (30-45 minutes, 37° C.) with the membrane-permeant, acetoxymethyl ester form of the dye (Fura-2AM). These coverslips (with dye-loaded glands) were then mounted in a small chamber attached to the stage of an inverted microscope, and the glands superfused (ca. 5 ml minute^−1, 37° C.) with physiological salt solution (PSS; composition (mM): NaCl 130, KCl 5, MgCl2 1, CaCl2 1, HEPES 20, D-Glucose 10, pH 7.4 with NaOH). Changes in [Ca^2+]i were detected using 340/380 nm excitation and 510 nm emission wavelengths, and data expressed as the 340:380 ratio.
Measurement of Store-Operated Ca^2+ Entry (SOCE)
To measure store-operated calcium entry (SOCE), independent of external membrane receptor activation, the following assay protocol was used. First, isolated glands were exposed to 1 μM thapsigargin in Ca^2+-free PSS for 3 minutes. As thapsigargin inhibits the Ca^2+-ATPase uptake pathway in intracellular Ca^2+ stores, this enables Ca^2+ to leak out of the store and subsequently trigger the activation of SOCE. In Ca^2+-free PSS, this process is represented by a very small rise in [Ca^2+]i. Glands were then exposed to 1 μM thapsigargin in Ca^2+-containing PSS for 2 minutes, thereby inducing a rapid increase in [Ca^2+]i via Ca^2+ entry into the cells via the open SOCE pathway. To complete the protocol, thapsigargin is finally removed by washing the glands with Ca^2+ -containing PSS, and allowing the resting [Ca^2+]i level to re-establish itself, and the intracellular Ca^2+ stores to refill. The effectiveness of selected SOCE channel inhibitors were assessed by repeating the above procedure in the presence of the inhibitor (at a chosen concentration) from the time at which thapsigargin was added to release the intracellular Ca^2+ stores, until the cells were finally washed following the Ca^2+ peak initiated by Ca^2+ entry. Dose-response curves were constructed for each inhibitor and the half-maximal concentration (IC50) determined. The potency of each inhibitor was also assessed by expressing the reduction in the 340:380 ratio observed at the maximum concentration (10^−5M) as a % of the control response (i.e. in the absence of inhibitor; see Table 1).

interleukin (IL)-6 = assay: THP-1 in vitro anti-inflammation assay: IL-6 ELISA in supernatant of PMA-differentiated, LPS-treated THP1-XBlue cells; assay type: cell-based; conditions: 24 hours, LPS alone 24176
Experimental: The following procedure was used to test the anti-inflammation efficacy of the actives.
THP1-XBlue™ (Cat No: thpx-sp, InvivoGen) cells were cultured as a suspension in RPMI 1640 medium supplemented with 10% FBS, penicillin (10 U/mL)—streptomycin (10 μg/ML). Cells were differentiated in 24-well plates at the density of 5×10^5 cells/well with 100 nM PMA for 72 hours. Cells were then co-treated with pure E. coli lipopolysaccharides (LPS) and with active. After 24 hours, the supernatants were collected and measured for interleukin (IL)-6 as pro-inflammatory bio-marker using enzyme-linked immunosorbent assay (ELISA).

[2] = 20 μM active co-treated with E. coli LPS

| Compound | IC50 [1] [µM] | inhibition at 10 µM [1] [%] | Concentration of IL-6 (interleukin (IL)-6; [2]) [pg/mL] | Concentration of IL-6 (interleukin (IL)-6; 10 μM active co-treated with E. coli LPS) [pg/mL] |
| --- | --- | --- | --- | --- |
| COc1cc(CCC(O)CC(O)CCc2ccc(O)c(OC)c2)ccc1O (stereo not drawn) [Formula 4, 1,7-bis(4-hydroxy-3-methoxyphenyl) heptane-3,5-diol] | 0.0912 | 75.4 | 18218 |  |
| COc1ccc(/C=C/C(=O)C(C)(C)C(=O)/C=C/c2ccc(OC)c(OC)c2)cc1OC [Formula 2] | 0.024 | 99 |  |  |
| COc1ccc(CCC(O)C(C)(C)C(O)CCc2ccc(OC)c(OC)c2)cc1OC (stereo not drawn) [Formula 5, 1,7-bis (3,4-dimethoxyphenyl)-4,4-dimethylheptane-3,5-diol] | 0.138 | 76 | 9142 | 14880 |
